The record followed here is patent US20130102580A1, “COMPOSITIONS AND METHODS RELATED TO DEOXYCHOLIC ACID AND ITS POLYMORPHS” (Kythera Biopharmaceuticals, Inc., priority 2011, published 2013).

Holding throughout (assay type): physicochemical
The nature of data set [1]: Drying experiments: form conversion and stability on drying under vacuum (XRPD, HPLC). The following applies: for Degradation by HPLC after drying: dried further for 24 hours. On the procedure: Conversion of Form C to Form B was evaluated at 40° C. under vacuum. Two different lots of 215 mg and 134 mg of Form C were dried under vacuum at 40° C.
To evaluate the stability of DCA Form B at 50° C. and 70° C., two lots of Form C were dried at 50° C. and 70° C. for 2 hours. […] The samples were dried further for 24 hours and retained for HPLC analysis.
Another drying study was performed to evaluate the stability of Form B DCA dried at 50° C. with deionized water (DI-water) and EtOH. Samples of DCA (2.0 g) were combined with DI water and EtOH. The samples were then dried under vacuum for an extended period of time at 50° C.
The form conversion of Form C to Form B at approximately 45° C. under vacuum was analyzed by XRPD every 20 minutes. FIG. 4 graphically illustrates the conversion of the Form C to Form B upon heating.
All the experiments were cooled at 10° C./h to 20° C. and left to stir overnight. A final portion of deionized water (Water #3) was added and the mixtures were stirred for 3 hours.

Data set [2] can be described thus: Slurry stability in EtOH/water (XRPD). As to the method: To evaluate form stability under slurry conditions, Forms A and B were slurried in about 1:1.2 v/v EtOH/water at ambient temperature and at 50° C. […] Approximately 217 mg of DCA Form B was mixed with 1.5 mL of EtOH/water (1:2.37 v/v). The mixture was heated at 50° C. with stirring for 2 hours and an aliquot was filtered to isolate wet solids for XRPD analysis.

Data set [3] in a line: Form conversions via heating (XRPD). On the procedure: 20 mg of DCA Form B was weighed in an alumina crucible and heated from 30° C. to 150° C. at a ramp rate of 10° C./min and then held at 150° C. for 30 minutes. The material was cooled to ambient temperature rapidly on the instrument and analyzed by XRPD.
19 mg of DCA Form B was weighed in an alumina crucible and heated from 30° C. to 135° C. at a ramp rate of 10° C./min and then held at 135° C. for 30 minutes. The material was cooled to ambient temperature rapidly on the instrument and analyzed by XRPD.

Another data set can be described thus: Humidity stress (XRPD). On the procedure:
Approximately 15 mg of Form B lot was stored at 95% relative humidity (RH) at ambient temperature. […] This surprising humidity/temperature stability of Form B was further evidenced from the following experiments. Form B samples were stored at 95% relative humidity (RH) and ambient temperature, and at 75% RH and 40° C. […] The increase of water content appeared to reach a plateau after an initial water sorption period.

The mark [4] stands for this setting: about 1:1.2 v/v EtOH/water, ambient temperature.

In the case of `C[C@H](CCC(=O)O)[C@H]1CC[C@H]2[C@@H]3CC[C@@H]4C[C@H](O)CC[C@]4(C)[C@H]3C[C@H](O)[C@]12C` [Form C, deoxycholic acid], the “Polymorphic form by XRPD after drying” value is given as “form conversion to Form B was complete” in data set [1] (dried at 50° C., 2 hours); “form conversion to Form B was complete” in data set [1] (dried at 70° C., 2 hours); “converted to Form B” in data set [1] (under vacuum at 40° C., 2 hours, two lots); “complete conversion to Form B” in data set [1] (under vacuum at 40° C., 18 hours); “converted to Form B” in data set [1] (under vacuum at 65° C., 60 hours, solids crystallized from EtOH/water).

In the case of `C[C@H](CCC(=O)O)[C@H]1CC[C@H]2[C@@H]3CC[C@@H]4C[C@H](O)CC[C@]4(C)[C@H]3C[C@H](O)[C@]12C` [Form A, deoxycholic acid], the “Form conversion on slurrying (XRPD)” value in data set [2] (setting [4]) is on record as “converted to Form C”. In data set [3] (conversions observed upon heating: C→B→D→A), the “Relative thermodynamic stability of the polymorphs” value was “most thermodynamically stable polymorph”.

As for `C[C@H](CCC(=O)O)[C@H]1CC[C@H]2[C@@H]3CC[C@@H]4C[C@H](O)CC[C@]4(C)[C@H]3C[C@H](O)[C@]12C` [Form B, deoxycholic acid], the “Degradation by HPLC after drying” value in data set [1] (50° C.) and in data set [1] (70° C.) was “no degradation” in each case. Besides, the “Stability to prolonged heating” value in data set [1] (heating up to 70° C.) was “stable to prolonged heating at up to 70 °C”. In addition, the “Stability by HPLC when dried with DI-water and EtOH” value in data set [1] (under vacuum, extended period, 50° C.) is listed as “stable”. The “Form conversion on slurrying (XRPD)” value was “remained to be Form B” in data set [2] (EtOH/water 1:2.37 v/v, 50° C., 4 hours); “afforded Form C” in data set [2] (about 1:1.2 v/v EtOH/water, 50° C., 2 hours); “did not show any form conversion” in data set [2] (setting [4]). Also, the “Form conversion under humidity stress (XRPD)” value in the data set “Humidity stress (XRPD)” (75% RH, 40° C., 11 days) is listed as “no form conversion”; in the data set “Humidity stress (XRPD)” (95% RH, ambient temperature, 10 days), “no conversion to Form C”; in the data set “Humidity stress (XRPD)” (95% RH, ambient temperature, 11 days), “no form conversion”. The “Form conversion on heating (XRPD)” value in data set [3] (30° C. to 135° C. at 10° C./min, held at 135° C. for 30 minutes) is “complete conversion to Form D”; in data set [3] (30° C. to 150° C. at 10° C./min, held at 150° C. for 30 minutes), “complete conversion to Form A”.
